Counter-ions that a name gives are not always drawn.
What was measured:
[1] = administered orally; cited from earlier work
[2] = system: immature bone marrow cells (blasts); experiment: Intravenous infusion trials in MDS patients; type: in vivo
Experimental: According to one embodiment, Rigosertib was given as an intravenous infusion to MDS patients. In one trial, patients received 800 mg Rigosertib for two to five days every other week. According to another embodiment, patients received 650 to 1,700 mg Rigosertib for three to six days every other week. According to yet another embodiment, patients were initially treated with 800 mg to 1,500 mg Rigosertib for two days every week for three weeks followed by one week without treatment. The treatment schedule in these studies was later changed to 1,800 mg Rigosertib per day for three days every other week.

[3] = Phase II, Part 2 study of shorter spacing between two oral doses with azacitidine, urinary adverse events; type: in vivo, patients; conditions: doses administered about 8 hours apart
Experimental: This study was conducted in patients with high risk MDS. RAEB-t (Refractory Anemia with Excess Blasts in Transformation)/non-proliferative AML were eligible but patients with CMML (Chronic Myelomonocytic Leukemia) were excluded.
The Phase II, Part 2 component of the study consisted of 2 cohorts of up to 40 evaluable patients randomized 1:1 into 2 cohorts of up to 20 patients each to receive 1120 mg of rigosertib over 24 hours: either 560 mg in the morning before breakfast in the fasting state and 560 mg in the afternoon, or 840 mg in the morning before breakfast in the fasting state and 280 mg in the afternoon. The afternoon dose in both cohorts must be administered at 3 PM (±1 hr) at least 2 hours after lunch. Each cohort will be stratified among HMA (hypomethylating agents) naïve and HMA refractory patients.
Each patient was required to complete a diary indicating the day and time of drug intake and record daily urinary dipstick pH and microscopic hematuria test. Rigosertib was supplied as 280 mg and 70 mg (in the event that different doses are needed) capsules by Onconova. […]
Safety assessment: medical history, physical examination, vital signs (blood pressure, temperature, respiration rate, and pulse), weight, standard 12-lead ECG, laboratory evaluations, and toxicity and AE assessments were monitored throughout the study. […]

[4] = system: immature bone marrow cells; experiment: Higher risk MDS patients who previously failed Vidaza or Dacogen; type: in vivo; conditions: higher risk MDS patients after failure of azacitidine or decitabine
Source text: In another embodiment, the efficacy of Rigosertib was shown in higher risk MDS patients who had previously failed treatment with Vidaza (azacitidine) or Dacogen (decitabine). […] These patients experienced at least a 50 percent decrease or stabilization in the number of immature bone marrow cells, and their median survival was about 36 weeks.

[5] = Phase 2 study in lower risk transfusion-dependent MDS patients, continuous vs intermittent oral administration, urinary adverse events; type: in vivo
Experimental: Soft gelatin capsule of Rigosertib was tested in this phase 2 study in LR (Lower Risk intermediate-1 or low risk per IPSS classification) transfusion-dependent MDS patients. The capsules (560 mg) were administered twice a day, under fasting conditions, approximately 12 hours apart. The total dose of drug was 1120 mg per day. Various treatment regimens were tested: • Continuous administration, i.e 4 out of 4 weeks. 9 patients were treated. • Intermittent administration; i.e 2 weeks on and one week off. 35 patients were treated. Safety assessment: medical history, physical examination, vital signs (blood pressure, temperature, respiration rate, and pulse), weight, standard 12-lead ECG, laboratory evaluations, and toxicity and AE assessments were monitored throughout the study. Urinary Adverse Events are pollakiuria, micturition urgency, urinary tract pain, hematuria and dysuria.

[6] = 560 mg bid q12 hrs, intermittent 2 weeks on/1 week off, n = 35

## COc1cc(OC)c(/C=C/S(=O)(=O)Cc2ccc(OC)c(NCC(=O)O)c2)c(OC)c1 [Rigosertib, (E)-2,4,6-trimethoxystyryl-3-[(carboxymethyl)amino]-4-methoxybenzylsulphone sodium salt]
[1]
  Common adverse event: urothelial toxicity
[2]
  Decrease or stabilization in the number of immature bone marrow cells (blasts): ≥ 50%
[3]
  Incidence of urinary adverse events (in words): dramatic reduction
[4]
  Decrease or stabilization in the number of immature bone marrow cells: ≥ 50%
  Median survival: about 36 weeks
[5]; [6]
  Incidence of Urinary AEs, Grade 1/2 (% of Patients): 71%
  Incidence of Urinary AEs, Grade 1/2, number of patients: 25
  Incidence of Urinary AEs, Grade 3 (% of Patients): 23%
  Incidence of Urinary AEs, Grade 3, number of patients: 8
[5]; continuous administration 4 out of 4 weeks, 560 mg twice a day
  Urinary adverse events (in words): high urinary adverse events
[5]; intermittent administration 2 weeks on and one week off, 560 mg twice a day
  Tolerability compared to continuous administration: better tolerated
